ChEMBL document CHEMBL1201862, “PubChem BioAssay data set” (2004)
Where a name gives a salt, the structure may show the parent alone. Values belong to the compound of their own block, whether it stands above or below them. Active and inactive are the calls of the source.

Columns and labels:
[1] = cytotoxicity toward NIH3T3 fibroblasts, dose response, counter-screen, cell-based, ATP luminescence, mouse fibroblasts (AID 2010); type: functional;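 further: cells exposed to compound for about 90 hours before reading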
[2] = molecular target: Beta-galactosidase (Escherichia coli, UniProt Q8VNN2); assay: PubChem AID 485352; type: functional
Sequence of Beta-galactosidase (Q8VNN2 whole entry): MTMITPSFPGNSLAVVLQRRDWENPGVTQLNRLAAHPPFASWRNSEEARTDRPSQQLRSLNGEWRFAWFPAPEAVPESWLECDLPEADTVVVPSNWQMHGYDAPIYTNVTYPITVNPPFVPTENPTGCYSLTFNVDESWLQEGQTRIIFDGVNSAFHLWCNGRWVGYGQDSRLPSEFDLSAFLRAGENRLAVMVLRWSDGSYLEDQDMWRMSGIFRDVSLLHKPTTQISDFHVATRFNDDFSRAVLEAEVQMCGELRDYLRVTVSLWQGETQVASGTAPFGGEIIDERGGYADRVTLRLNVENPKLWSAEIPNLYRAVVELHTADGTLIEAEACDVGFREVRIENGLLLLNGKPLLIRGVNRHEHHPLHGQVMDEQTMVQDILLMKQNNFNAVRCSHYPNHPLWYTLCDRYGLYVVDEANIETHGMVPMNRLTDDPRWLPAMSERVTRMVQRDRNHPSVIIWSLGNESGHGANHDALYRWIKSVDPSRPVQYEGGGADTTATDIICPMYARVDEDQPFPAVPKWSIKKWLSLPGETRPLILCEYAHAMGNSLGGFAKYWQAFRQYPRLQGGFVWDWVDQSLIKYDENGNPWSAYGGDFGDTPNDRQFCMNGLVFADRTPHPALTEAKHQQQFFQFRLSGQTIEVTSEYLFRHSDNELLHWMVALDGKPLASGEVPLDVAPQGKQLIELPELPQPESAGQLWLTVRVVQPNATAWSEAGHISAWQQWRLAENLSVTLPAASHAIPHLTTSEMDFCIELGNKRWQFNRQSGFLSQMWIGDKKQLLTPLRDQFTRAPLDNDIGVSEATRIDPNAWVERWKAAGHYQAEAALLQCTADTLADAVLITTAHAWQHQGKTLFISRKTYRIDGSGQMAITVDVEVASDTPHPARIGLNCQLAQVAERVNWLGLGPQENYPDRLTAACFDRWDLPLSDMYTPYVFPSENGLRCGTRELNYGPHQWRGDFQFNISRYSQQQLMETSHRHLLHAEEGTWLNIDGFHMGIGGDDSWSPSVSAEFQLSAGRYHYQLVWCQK

[3] = tested on: Streptococcus sp. 'group A'; assay: growth inhibition of control SK(-) GAS strain, dose response, counter-screen for streptokinase expression inhibitor project, luminescence, kanamycin, BacTiterGlo, confirmation (AID 1900); type: functional, organism-based
[4] = inhibitors of intracellular T. cruzi replication, confirmation, NIH3T3 host cells, beta-gal luminescence (AID 2044); type: functional, cell-based;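 further: intracellular parasites grown in NIH/3T3 mouse fibroblasts as host cells; luminescent beta-galactosidase reporter signal from transgenic T. cruzi replicating inside host cells; inhibitors lower the luminescence signal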
[5] = molecular target: T1, DNA repair and recombination protein RAD54-like (Homo sapiens, UniProt Q92698); assay: inhibitors of human RAD54 branch migration, confirmation, biochemical, fluorescence, cherry-picked samples, dose series (AID 651657); type: functional
T1 sequence (Q92698 whole entry): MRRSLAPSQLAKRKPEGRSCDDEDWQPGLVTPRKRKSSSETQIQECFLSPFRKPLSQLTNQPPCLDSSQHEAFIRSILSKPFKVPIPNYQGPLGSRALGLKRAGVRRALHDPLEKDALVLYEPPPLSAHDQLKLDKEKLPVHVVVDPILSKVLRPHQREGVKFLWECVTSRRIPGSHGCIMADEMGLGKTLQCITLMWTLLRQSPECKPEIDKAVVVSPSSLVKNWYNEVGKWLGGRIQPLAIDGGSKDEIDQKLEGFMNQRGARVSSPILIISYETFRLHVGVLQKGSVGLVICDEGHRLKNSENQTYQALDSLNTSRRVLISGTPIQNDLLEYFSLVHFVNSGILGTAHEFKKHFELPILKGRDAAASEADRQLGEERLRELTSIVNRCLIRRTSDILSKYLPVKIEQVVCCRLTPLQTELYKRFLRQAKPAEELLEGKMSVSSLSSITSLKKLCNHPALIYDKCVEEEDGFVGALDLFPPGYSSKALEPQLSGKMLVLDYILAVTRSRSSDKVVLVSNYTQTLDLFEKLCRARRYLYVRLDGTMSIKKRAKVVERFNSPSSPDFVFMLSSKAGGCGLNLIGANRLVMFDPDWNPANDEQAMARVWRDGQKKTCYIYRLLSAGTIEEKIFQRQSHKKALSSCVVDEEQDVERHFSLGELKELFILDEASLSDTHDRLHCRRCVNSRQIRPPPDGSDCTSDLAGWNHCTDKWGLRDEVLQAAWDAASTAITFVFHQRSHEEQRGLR

[6] = tested on: INS1; assay: beta cell apoptosis inhibitors, cytokine rescue, dose response, luminescence, retest (AID 449756); type: functional, cell-based; conditions: Rattus norvegicus;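 further: cell death triggered by IL-1 beta plus TNF-alpha plus IFN-gamma mixture; protective hits raise ATP signal compared with cytokine alone wells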
[7] = molecular target: Type-1 angiotensin II receptor (Homo sapiens, UniProt P30556); assay: AT1 receptor antagonists, dose response, selectivity assay for APJ receptor antagonist project, cell-based, uHTS hits (AID 463214); type: functional;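 further: antagonist potency against angiotensin II stimulated AT1 response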
Sequence of Type-1 angiotensin II receptor (P30556 whole entry): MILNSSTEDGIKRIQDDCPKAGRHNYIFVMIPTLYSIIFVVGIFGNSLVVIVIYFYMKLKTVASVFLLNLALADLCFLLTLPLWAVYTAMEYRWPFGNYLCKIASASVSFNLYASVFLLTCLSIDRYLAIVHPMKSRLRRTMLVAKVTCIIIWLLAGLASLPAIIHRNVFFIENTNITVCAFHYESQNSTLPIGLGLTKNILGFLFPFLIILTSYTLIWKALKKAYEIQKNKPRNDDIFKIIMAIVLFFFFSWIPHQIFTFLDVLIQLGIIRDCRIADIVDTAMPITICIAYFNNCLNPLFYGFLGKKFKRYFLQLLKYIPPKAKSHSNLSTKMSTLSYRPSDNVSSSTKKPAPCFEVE

[8] = tested on: Streptococcus; assay: Group A Streptococcus viability loss, dose response, counter-screen for streptokinase expression inhibitor project, luminescence, BacTiterGlo (AID 1915); type: functional, organism-based;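 further: potency for reduction of bacterial viability or growth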
[9] = molecular target: Beta-2 adrenergic receptor (Homo sapiens, UniProt P07550); assay: beta2AR agonists driving receptor internalization, dose response, cell-based, FAP fluorogen, flow cytometry, cherry pick 1 (AID 588763); type: functional
Sequence of Beta-2 adrenergic receptor (P07550 whole entry): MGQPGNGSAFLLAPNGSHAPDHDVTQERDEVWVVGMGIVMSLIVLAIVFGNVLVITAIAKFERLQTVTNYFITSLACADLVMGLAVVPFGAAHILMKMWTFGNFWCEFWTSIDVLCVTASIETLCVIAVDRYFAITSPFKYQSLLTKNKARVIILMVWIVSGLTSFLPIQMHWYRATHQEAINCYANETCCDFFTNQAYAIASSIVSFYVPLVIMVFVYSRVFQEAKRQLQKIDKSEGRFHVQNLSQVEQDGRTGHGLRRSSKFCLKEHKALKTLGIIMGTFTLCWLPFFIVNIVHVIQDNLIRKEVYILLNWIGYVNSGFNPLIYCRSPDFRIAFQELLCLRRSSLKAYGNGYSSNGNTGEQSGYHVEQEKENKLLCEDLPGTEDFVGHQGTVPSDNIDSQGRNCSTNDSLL

[10] = molecular target: SUMO-activating enzyme (Homo sapiens, UniProt Q9UBT2); assay: SUMOylation inhibitor hit validation, confirmation, SUMOylation inhibitor project, biochemical, AlphaScreen (AID 2018); type: functional
[11] = molecular target: Peroxisome proliferator-activated receptor gamma/Nuclear receptor coactivator 1 (Homo sapiens, UniProt P37231); type: functional;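 further: agonist potency as compounds enhance coactivator SRC-1 recruitment to PPARgamma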
Sequence of Peroxisome proliferator-activated receptor gamma/Nuclear receptor coactivator 1 (P37231 whole entry): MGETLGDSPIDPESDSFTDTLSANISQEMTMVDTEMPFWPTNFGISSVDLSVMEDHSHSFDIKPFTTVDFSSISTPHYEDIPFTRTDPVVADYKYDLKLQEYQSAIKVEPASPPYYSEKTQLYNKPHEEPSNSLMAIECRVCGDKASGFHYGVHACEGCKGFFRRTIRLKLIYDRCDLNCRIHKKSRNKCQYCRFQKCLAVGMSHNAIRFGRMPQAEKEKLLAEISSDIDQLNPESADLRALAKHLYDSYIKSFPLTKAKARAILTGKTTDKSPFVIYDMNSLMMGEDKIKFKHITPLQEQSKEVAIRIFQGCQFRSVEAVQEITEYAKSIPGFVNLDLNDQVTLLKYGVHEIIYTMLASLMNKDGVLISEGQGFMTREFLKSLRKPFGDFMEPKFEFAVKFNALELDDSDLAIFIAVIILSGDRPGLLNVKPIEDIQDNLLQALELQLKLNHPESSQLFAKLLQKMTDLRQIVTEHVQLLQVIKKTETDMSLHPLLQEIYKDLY
Sequence of Peroxisome proliferator-activated receptor gamma/Nuclear receptor coactivator 1 (Q15788 whole entry, further chain): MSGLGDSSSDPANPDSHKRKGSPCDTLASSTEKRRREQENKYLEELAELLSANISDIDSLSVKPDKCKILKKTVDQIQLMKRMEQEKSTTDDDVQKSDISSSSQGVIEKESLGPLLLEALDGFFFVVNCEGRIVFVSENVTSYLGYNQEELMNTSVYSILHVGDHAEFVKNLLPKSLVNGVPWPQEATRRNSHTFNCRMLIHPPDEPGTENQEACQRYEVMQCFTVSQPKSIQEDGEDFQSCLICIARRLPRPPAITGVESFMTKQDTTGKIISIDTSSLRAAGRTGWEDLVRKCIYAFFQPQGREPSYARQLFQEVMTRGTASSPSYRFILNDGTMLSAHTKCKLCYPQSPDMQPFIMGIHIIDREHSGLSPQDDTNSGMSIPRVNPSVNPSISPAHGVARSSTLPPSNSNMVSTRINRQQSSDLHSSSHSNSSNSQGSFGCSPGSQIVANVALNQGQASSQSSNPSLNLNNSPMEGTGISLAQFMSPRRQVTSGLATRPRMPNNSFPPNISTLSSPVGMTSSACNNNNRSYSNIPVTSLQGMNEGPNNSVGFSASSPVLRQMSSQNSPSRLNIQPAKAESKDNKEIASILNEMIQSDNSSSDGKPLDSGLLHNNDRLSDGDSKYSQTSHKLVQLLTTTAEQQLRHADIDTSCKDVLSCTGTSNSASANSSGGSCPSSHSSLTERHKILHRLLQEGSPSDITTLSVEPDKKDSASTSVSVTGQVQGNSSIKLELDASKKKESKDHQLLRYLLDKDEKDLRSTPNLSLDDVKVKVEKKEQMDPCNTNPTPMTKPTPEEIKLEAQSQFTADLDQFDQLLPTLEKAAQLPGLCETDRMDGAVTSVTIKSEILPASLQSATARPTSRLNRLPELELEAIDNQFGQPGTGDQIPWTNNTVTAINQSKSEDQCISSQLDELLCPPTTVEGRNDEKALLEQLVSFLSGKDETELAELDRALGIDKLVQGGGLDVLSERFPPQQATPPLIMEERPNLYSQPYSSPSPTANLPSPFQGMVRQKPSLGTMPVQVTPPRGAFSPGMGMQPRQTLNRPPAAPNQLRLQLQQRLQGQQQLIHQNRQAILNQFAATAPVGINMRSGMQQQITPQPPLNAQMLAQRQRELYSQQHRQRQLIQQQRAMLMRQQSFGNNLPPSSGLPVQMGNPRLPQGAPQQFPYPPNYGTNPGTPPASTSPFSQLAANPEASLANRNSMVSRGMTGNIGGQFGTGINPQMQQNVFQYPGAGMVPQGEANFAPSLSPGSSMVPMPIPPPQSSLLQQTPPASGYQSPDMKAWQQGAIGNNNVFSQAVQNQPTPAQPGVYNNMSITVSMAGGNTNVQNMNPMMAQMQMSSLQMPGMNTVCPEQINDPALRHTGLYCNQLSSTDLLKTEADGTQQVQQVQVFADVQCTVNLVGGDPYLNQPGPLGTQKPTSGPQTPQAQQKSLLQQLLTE

[12] = growth suppression of PTEN-null colon cells, dose response, cell-based, HCT116 PTEN knockout (AID 1047); type: functional;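 further: HCT116 colon tumor cells with PTEN knocked out; cells exposed to compound for 60 hours before readout; potency for loss of cell viability measured by luminescence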
[13] = molecular target: Peroxisome proliferator-activated receptor gamma/Nuclear receptor coactivator 3 (Homo sapiens, UniProt P37231); type: functional;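 further: agonist potency for raising coactivator recruitment to the receptor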
[14] = molecular target: Peroxisome proliferator-activated receptor gamma/Nuclear receptor coactivator 2 (Homo sapiens, UniProt P37231); type: functional;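 further: agonist potency for raising coactivator recruitment to the receptor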
[15] = growth suppression of beta-catenin-knockout colon cells, dose response, cell-based, HCT116, human colon tumor (AID 1045); type: functional;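 further: HCT116 colon tumor cells with beta catenin knocked out; cells exposed to compound for 60 hours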
[16] = tested on: HEK293; assay: optical interference in Abeta FP readout, dose response, artefact control for IDE activator project, biochemical, fluorescence polarization (AID 588442); type: functional, cell-based; conditions: Homo sapiens
[17] = molecular target: T2, Insulin-degrading enzyme (Homo sapiens, UniProt P14735); assay: activators of recombinant IDE enzyme, dose response, counter-screen for IDE activator project, biochemical, fluorescence polarization (AID 588681)
T2 sequence (P14735 whole entry): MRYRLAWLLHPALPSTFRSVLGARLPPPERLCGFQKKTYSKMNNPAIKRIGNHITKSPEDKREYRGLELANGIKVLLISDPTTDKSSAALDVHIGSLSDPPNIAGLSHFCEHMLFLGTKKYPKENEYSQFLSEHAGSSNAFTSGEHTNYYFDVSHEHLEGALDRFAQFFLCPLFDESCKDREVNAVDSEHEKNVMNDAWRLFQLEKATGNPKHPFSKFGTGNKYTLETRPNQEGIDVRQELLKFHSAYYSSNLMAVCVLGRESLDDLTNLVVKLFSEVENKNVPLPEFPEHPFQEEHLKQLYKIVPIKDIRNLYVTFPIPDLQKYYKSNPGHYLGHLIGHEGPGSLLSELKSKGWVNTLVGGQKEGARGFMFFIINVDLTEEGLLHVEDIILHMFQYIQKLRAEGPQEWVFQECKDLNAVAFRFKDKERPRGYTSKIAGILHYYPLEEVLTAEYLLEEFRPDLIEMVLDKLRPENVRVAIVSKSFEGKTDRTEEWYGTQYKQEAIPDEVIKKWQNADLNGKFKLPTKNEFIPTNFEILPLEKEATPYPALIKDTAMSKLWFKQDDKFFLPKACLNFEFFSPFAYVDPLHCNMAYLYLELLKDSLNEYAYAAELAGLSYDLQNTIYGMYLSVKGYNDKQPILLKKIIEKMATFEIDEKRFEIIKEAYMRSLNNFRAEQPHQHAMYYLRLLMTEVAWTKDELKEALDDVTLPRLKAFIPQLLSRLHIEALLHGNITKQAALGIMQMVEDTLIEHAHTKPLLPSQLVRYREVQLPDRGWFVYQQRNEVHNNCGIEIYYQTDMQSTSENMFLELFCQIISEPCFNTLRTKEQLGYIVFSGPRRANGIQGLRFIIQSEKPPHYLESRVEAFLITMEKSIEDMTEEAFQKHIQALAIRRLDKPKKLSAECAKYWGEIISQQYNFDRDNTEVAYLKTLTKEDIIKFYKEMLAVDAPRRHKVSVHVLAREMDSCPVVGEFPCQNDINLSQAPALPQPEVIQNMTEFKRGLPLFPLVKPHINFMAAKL

[18] = molecular target: T2, Insulin-degrading enzyme; assay: activators of endogenous IDE in HEK cells, dose response, cell-based, fluorescence polarization (AID 588439); type: functional
[19] = tested on: HEK293; assay: HEK cell cytotoxicity by LDH release, dose response, cytotoxicity control for IDE activator project, fluorescence, HEK cells (AID 588440); type: functional, cell-based; conditions: Homo sapiens;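 further: cytotoxicity by LDH release measuring loss of membrane integrity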
[20] = cells; type: functional, cell-based
[21] = cells; type: functional, cell-based; remark: listed apart in the source
[22] = molecular target: T3, Microphthalmia-associated transcription factor (Homo sapiens, UniProt O75030); assay: TRPM1 promoter luciferase signal decrease, dose response, MITF inhibitor project, cell-based, SK-MEL-5, cherry-picked, set 3 (AID 493073); type: functional
T3 sequence (O75030 whole entry): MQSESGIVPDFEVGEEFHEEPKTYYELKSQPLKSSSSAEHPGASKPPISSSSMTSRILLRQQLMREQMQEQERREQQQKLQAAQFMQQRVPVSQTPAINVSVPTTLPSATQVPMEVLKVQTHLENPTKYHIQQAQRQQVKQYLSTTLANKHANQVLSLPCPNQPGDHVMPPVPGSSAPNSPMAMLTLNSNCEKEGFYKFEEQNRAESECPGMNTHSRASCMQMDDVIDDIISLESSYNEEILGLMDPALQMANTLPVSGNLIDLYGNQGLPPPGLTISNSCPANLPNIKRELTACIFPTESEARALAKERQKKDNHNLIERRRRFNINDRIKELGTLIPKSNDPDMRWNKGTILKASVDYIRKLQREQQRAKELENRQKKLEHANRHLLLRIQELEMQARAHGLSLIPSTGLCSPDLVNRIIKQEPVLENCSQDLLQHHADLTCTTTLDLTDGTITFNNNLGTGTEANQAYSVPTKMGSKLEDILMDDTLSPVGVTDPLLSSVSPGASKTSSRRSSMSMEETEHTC

[23] = molecular target: Voltage-gated inwardly rectifying potassium channel KCNH2 (Homo sapiens, UniProt Q12809); conditions: Potency;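 further: confirmatory quantitative high-throughput screen measuring inhibition of hERG channel activity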
Sequence of Voltage-gated inwardly rectifying potassium channel KCNH2 (Q12809 whole entry): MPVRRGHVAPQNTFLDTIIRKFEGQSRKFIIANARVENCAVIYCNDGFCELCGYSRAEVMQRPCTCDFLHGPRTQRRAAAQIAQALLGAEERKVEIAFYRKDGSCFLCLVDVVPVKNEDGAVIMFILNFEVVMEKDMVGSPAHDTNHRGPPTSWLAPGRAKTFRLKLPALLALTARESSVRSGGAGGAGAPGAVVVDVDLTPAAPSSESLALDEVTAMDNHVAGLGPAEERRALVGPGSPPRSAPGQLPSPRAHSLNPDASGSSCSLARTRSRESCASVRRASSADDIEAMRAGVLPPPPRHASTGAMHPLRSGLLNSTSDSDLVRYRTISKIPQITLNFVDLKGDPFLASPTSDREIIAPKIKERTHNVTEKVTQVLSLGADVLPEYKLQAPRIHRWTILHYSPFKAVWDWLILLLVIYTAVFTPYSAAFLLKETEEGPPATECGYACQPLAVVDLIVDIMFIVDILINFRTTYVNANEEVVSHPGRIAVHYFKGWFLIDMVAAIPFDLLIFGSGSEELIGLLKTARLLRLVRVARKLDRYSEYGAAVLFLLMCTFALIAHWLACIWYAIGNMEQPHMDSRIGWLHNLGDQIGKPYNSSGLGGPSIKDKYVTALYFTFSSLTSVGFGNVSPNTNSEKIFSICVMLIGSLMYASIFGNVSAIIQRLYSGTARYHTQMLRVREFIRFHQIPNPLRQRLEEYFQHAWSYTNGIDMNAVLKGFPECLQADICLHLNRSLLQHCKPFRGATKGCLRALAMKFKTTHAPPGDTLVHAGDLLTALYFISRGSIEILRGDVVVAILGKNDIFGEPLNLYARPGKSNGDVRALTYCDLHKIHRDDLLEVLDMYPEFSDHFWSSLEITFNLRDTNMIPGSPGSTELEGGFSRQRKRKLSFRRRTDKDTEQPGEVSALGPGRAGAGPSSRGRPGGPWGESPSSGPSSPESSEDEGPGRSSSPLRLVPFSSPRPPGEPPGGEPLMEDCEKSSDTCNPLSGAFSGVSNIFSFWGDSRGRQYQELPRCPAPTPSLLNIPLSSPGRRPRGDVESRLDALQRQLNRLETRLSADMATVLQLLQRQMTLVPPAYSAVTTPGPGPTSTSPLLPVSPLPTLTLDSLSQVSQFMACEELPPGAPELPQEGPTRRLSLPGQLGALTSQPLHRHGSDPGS

Structure (SMILES): CCCN(CCC)c1nc(-c2ccccn2)nc2ccccc12
- EC50 [1]: 1.76 µM (active)
- EC50 [2]: > 40 µM (inactive)
- EC50 [3]: 1.02 µM (active)
- EC50 [4]: 0.374 µM (active)
- AC50 [5]: 13.3 µM (active)
- AC50 [6]: 1.77 µM (active)
- IC50 [7]: 23.9 µM (not active)
- EC50 [8]: 1.85 µM (active)

Structure (SMILES): O=C(Nc1ccc2oc(-c3ccc4ccccc4c3)nc2c1)c1ccc2c(c1)OCCO2
- EC50 [9]: 5.58 µM (active)
- IC50 [10]: 38.9 µM (active)
- EC50 [11]: 27.1 µM (not active)
- EC50 [12]: 12.4 µM (active)
- EC50 [13]: 37.1 µM (not active)
- EC50 [14]: 22.1 µM (not active)
- EC50 [15]: 18.4 µM (active)

Structure (SMILES): Cc1ccc(Cn2nc(C)c(C(=O)N3CCN(S(=O)(=O)/C=C/c4ccccc4)CC3)c2C)cc1
- EC50 [16]: > 54.7 µM (inactive)
- EC50 [17]: > 54.7 µM (inactive)
- EC50 [18]: > 54.7 µM (inactive)
- IC50 [19]: > 89.2 µM (inactive)

- EC50 [9]: 0.522 µM (active)
Structure (SMILES): CC1CCC(NC(=O)CCS(=O)(=O)c2ccc3c(c2)CCN3C(=O)C2CC2)CC1 (centres undefined)

Structure (SMILES): COc1cc(C(=O)N/N=C(\c2ccccc2)c2ccccn2)cc(OC)c1OC
- EC50 [20]: > 350 µM (not active)
- EC50 [1]: 0.75 µM (active)
- EC50 [2]: > 40 µM (inactive)
- EC50 [4]: 0.473 µM (active)
- EC50 [21]: 10.3 µM (active)
- AC50 [6]: 0.499 µM (active)
- AC50 [22]: 13.8 µM (active)
- IC50 [7]: > 40 µM (not active)

Structure (SMILES): CNCCCC1c2ccccc2C=Cc2ccccc21 [PROTRIPTYLINE HYDROCHLORIDE]
- AC50 [23]: 31.6 µM (inconclusive)
